The record followed here is patent publication US6579881B2 (Eisai Co., Ltd., priority 1997, dated 2003).

Where a name gives a salt, the structure may show the parent alone. Bounds are passed on as bounds.

Usually melting point stands for the temperature of the solid-liquid transition.

One data set deals with serotonin 2 receptor (Rattus norvegicus, UniProt P14842). In words: Binding test on [3H] ketanserin (serotonin 2 receptor). As to conditions: [3H] ketanserin 0.3 nM, receptor fraction of rat cerebral cortex; read-out: 5HT2.
Sequence of serotonin 2 receptor (P14842 whole entry): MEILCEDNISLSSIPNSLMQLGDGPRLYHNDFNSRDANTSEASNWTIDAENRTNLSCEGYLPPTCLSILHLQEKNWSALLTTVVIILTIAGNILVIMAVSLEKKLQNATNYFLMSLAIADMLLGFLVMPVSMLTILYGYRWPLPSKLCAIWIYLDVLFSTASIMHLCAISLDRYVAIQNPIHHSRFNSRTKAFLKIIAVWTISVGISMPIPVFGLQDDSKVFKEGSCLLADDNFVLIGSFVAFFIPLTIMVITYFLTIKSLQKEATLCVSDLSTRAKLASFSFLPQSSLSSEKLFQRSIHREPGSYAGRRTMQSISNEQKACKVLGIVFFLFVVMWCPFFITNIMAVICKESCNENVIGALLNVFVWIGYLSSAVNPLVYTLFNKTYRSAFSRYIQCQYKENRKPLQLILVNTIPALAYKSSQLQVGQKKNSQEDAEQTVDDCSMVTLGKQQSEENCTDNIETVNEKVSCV
Another data set concerns the target T1, serotonin 1A receptor (Rattus norvegicus, UniProt P19327).
T1 construct: To the receptor fraction of the hippocampus were added a test compound and 0.5 nM of [^3H]; 8-hydroxy-dipropylaminotetralin; from tissue; host or cells: SD rat hippocampus, membrane (receptor) fraction
T1 sequence (P19327 1-422): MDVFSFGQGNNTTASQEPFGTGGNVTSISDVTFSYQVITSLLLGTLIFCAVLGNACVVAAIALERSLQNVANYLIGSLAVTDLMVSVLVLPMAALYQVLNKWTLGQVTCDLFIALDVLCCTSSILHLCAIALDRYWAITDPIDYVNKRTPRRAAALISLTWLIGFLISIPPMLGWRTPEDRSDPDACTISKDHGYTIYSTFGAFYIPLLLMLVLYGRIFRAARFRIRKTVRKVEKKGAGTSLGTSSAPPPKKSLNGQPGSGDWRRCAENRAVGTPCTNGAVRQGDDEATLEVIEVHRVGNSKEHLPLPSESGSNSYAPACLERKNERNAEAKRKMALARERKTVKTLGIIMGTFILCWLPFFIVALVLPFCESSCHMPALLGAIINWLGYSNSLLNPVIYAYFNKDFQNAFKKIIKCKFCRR
The data set is described as follows: Binding test on [3H] 8-hydroxy-dipropylaminotetralin (serotonin 1A receptor). As to conditions: [3H] 8-OH-DPAT 0.5 nM, receptor fraction of rat hippocampus; read-out: 5HT1a.

In another data set the target is α1 adrenalin receptor. The data set is described as follows: Binding test on [3H] prazosin (α1 adrenalin receptor). The arrangement: species or system rat. The following applies: [3H] prazosin about 0.2 nM, receptor fraction of rat cerebral cortex.

In turn, `O=C(CN1CCCCC1)NCc1ccc2ccn(C3CCN(CCc4ccc(F)cc4)CC3)c2c1` (as salt: oxalate) [Example 376, 1-[1-(4-fluorophenethyl)piperidin-4-yl]-6-[(piperidin-1-yl)acetamido]methylindole] showed a melting point of 113 to 114 °C. For `O=[N+]([O-])c1ccc(CCN2CCC(N3CCc4ccccc43)CC2)cc1` [Example 29, 1-[1-(4-nitrophenethyl)piperidin-4-yl]indoline], the melting point lay in the range of 95 to 97 °C. In addition, on serotonin 2 receptor, the Ki turned out to be 36.5 nM. As to `O=C(Cc1ccc2ccn(C3CCN(CCc4ccc(F)cc4)CC3)c2c1)N1CCCC1` (as salt: oxalate) [Example 298, 1-[1-(4-fluorophenethyl)piperidin-4-yl]-6-(tetramethylenecarbamoylmethyl)indole Oxalate], the melting point is 171.5 to 172.1 °C. Compound `CS(=O)(=O)NCc1ccc(CCN2CCC(N3CCc4ccccc43)CC2)cc1` (as salt: oxalate) [Example 38, 1-[1-(4-methanesulfonylaminomethylphenethyl)piperidin-4-yl]indoline] gave a melting point of 199 °C.

Consider `CC(=O)N(C)Cc1ccc2ccn(C3CCN(CCc4ccc(F)cc4)CC3)c2c1` (as salt: oxalate) [Example 359, 1-[1-(4-fluorophenethyl)piperidin-4-yl]-6-N-methylacetamidomethylindole], for which the melting point is 148 to 149 °C. In the case of `COc1ccc2c(c1C)N(C1CCN(CCc3ccc(F)cc3)CC1)CCC2` (as salt: oxalate), the melting point was 176 to 178 °C. As for `NC(=O)c1ccc2ccn(C3CCN(CCc4ccc(F)cc4)CC3)c2c1` [Example 337, 1-[1-(4-fluorophenethyl)piperidin-4-yl]-6-carbamoylindole], the melting point lay in the range of 238 to 240 °C. Moreover, on serotonin 1A receptor, the Ki was less than 0.2 nM. Also, on serotonin 2 receptor, the Ki is more than 20 nM. As for `COc1ccc2c(c1)N(C1CCN(CC(=O)c3ccc(F)cc3)CC1)CCC2` (as salt: hydrochloride), the melting point was 153 to 155 °C (dec.).

The compound `O=C(CF)NCc1ccc2ccn(C3CCN(CCc4ccccc4F)CC3)c2c1` (as salt: oxalate) [Example 381, 1-[1-(2-fluorophenethyl)piperidin-4-yl]-6-fluoroacetamidomethylindole] yielded a melting point of 168 to 169 °C. Take `NCc1ccc2ccn(C3CCN(CCc4ccccc4F)CC3)c2c1` [Example 348, 1-[1-(2-fluorophenethyl)piperidin-4-yl]-6-aminomethylindole]: the melting point was in the range of 86 to 87 °C.

As to `O=C(NCc1ccc2ccn(C3CCN(CCc4ccc(F)cc4)CC3)c2c1)n1ccnc1` (as salt: oxalate) [Example 368, 1-[1-(4-fluorophenethyl)piperidin-4-yl]-6-imidazocarbonylaminomethylindole], the melting point is 156 to 157 °C. The compound `O=C(CCN1CCCCC1)NCc1ccc2ccn(C3CCN(CCc4ccc(F)cc4)CC3)c2c1` (as salt: oxalate) [Example 379, 1-[1-(4-fluorophenethyl)piperidin-4-yl]-6-[3-(piperidin-1-yl)propionylamino]methylindole] displayed a melting point of 108 to 109 °C. As for `CC(=O)NCc1ccc2ccn(C3CCN(CCc4ccc(F)cc4F)CC3)c2c1` (as salt: oxalate) [Example 357, 1-[1-(2,4-difluorophenethyl)piperidin-4-yl]-6-acetamidomethylindole], the melting point is 103 to 106 °C. Still for that read-out and setting: next, `COc1ccc2c(c1OC)N(C1CCN(CCc3ccc(F)cc3)CC1)CCC2` (as salt: hydrochloride): 213 to 215 °C; `CN(C)CC(=O)NCc1ccc2ccn(C3CCN(CCc4ccc(F)cc4)CC3)c2c1` (as salt: oxalate) [Example 375, 1-[1-(4-fluorophenethyl)piperidin-4-yl]-6-(N,N-dimethylaminoacetamido)methylindole]: 112 to 113 °C. On the same count and under the same terms, to `CNCc1ccc2ccn(C3CCN(CCc4ccc(F)cc4)CC3)c2c1` (as salt: oxalate) [Example 361, 1-[1-(4-fluorophenethyl)piperidin-4-yl]-6-N-methylaminomethylindole] belongs 195 to 196 °C; to `COc1ccc2c(c1)N(C1CCN(CCc3ccc(F)cc3)CC1)C(C)(C)C2` (as salt: oxalate) [Example 396, 2,2-Dimethyl-1-[1-(4-fluorophenethyl)piperidin-4-yl]-6-methoxyindoline], 228 °C (dec.); to `CCN1CCN([C@@H]2c3ccccc3CC2N(C)Cc2ccc(F)cc2)CC1` (some centres unmarked) (as salt: hydrochloride) [Example 254], 196 to 198 °C.

Take `COc1ccc2c(c1)N(C1CCN(CCc3cccs3)CC1)CCC2` (as salt: hydrochloride) [Example 270, 1-{1-[2-(2-Thienyl)ethyl]piperidin-4-yl}-7-methoxy-1,2,3,4-tetrahydroquinoline Hydrochloride]: the melting point lay within 232 to 235 °C. Compound `CN(C)CCC(=O)NCc1ccc2ccn(C3CCN(CCc4ccc(F)cc4)CC3)c2c1` (as salt: oxalate) [Example 378, 1-[1-(4-fluorophenethyl)piperidin-4-yl]-6-(3-N,N-dimethylaminopropionyl)aminomethylindole] returned a melting point of 104 to 105 °C. For the compound `COc1ccc2c(c1)N(C1CCN(CCc3ccc(F)cc3)CC1)CCC2` (as salt: hydrochloride), the melting point was 258 °C (dec.).

Regarding `OCCOc1ccc2c(c1)CCCC2C1CCN(CCc2ccc(F)cc2)CC1` (centres unmarked) (as salt: hydrochloride) [Example 278, 1-[2-(4-fluorophenyl)ethyl]-4-[6-(2-hydroxy)ethoxy-1,2,3,4-tetrahydronaphthalen-1-yl]piperidine], the melting point was 213 to 215 °C (dec.). On the same count and under the same terms, next, `O=C1CCCN1Cc1ccc2ccn(C3CCN(CCc4ccc(F)cc4)CC3)c2c1` (as salt: oxalate) [Example 358, 1-[1-(4-fluorophenethyl)piperidin-4-yl]-6-(2-pyrrolidon-1-yl)methylindole]: 179 to 180 °C. Regarding `CCS(=O)(=O)Nc1ccc2ccn(C3CCN(CCc4ccc(F)cc4)CC3)c2c1` [Example 335, 1-[1-(4-fluorophenethyl)piperidin-4-yl]-6-(N-methylmethanesulfonylamino)indole], the melting point was 192 to 194 °C.

Take `O=C(CCl)NCc1ccc(CCN2CCC(N3CCc4ccccc43)CC2)cc1` (as salt: oxalate) [Example 37, 1-[1-(4-chloroacetamidomethylphenethyl)piperidin-4-yl]indoline]: the melting point stood at 138 °C. As to `CC1CN(C2CCN(CCc3ccc(F)cc3)CC2)c2ccccc21` (centres unmarked) [Example 216, 1-[1-(4-fluorophenethyl)piperidin-4-yl]-3-methylindoline], the Ki is 4.7 nM at serotonin 1A receptor, 42.9 nM at serotonin 2 receptor and 81.6 nM at α1 adrenalin receptor. As for `Fc1ccc(CCN2CCC(N3CCc4ccccc43)CC2)cc1F` [Example 11, 1-[1-(3,4-difluorophenethyl)piperidin-4-yl]indoline], the Ki came out at 5.7 nM at serotonin 1A receptor, 27.9 nM on serotonin 2 receptor and 147 nM on α1 adrenalin receptor. As to `COc1ccc2c(c1)N(C1CCN(CCCC#N)CC1)CCC2` (as salt: hydrochloride) [Example 269, 1-[1-(4-Cyanopropyl)piperidin-4-yl]-7-methoxy-1,2,3,4-tetrahydroquinoline Hydrochloride], the melting point was 180 to 183 °C (dec.).
